We go through 2 molecules from patent US5948437A, “Pharmaceutical compositions using thiazepine” (Zeneca Limited, priority 1997, dated 1999).

The conditions of series [1]: compound and its pharmaceutically acceptable salts; cited from earlier work.
The nature of the next series: physchem. As to conditions: water.

Structures can show the parent of a compound that is named as a salt.

In the case of `OCCOCCN1CCN(C2=Nc3ccccc3Sc3ccccc32)CC1` [11-[4-[2-(2-hydroxyethoxy)ethyl]-1-piperazinyl]-dibenzo[b,f][1,4]thiazepine], the antidopaminergic activity entry in series [1] was “exhibit useful antidopaminergic activity”.
Consider `OCCOCCN1CCN(C2=Nc3ccccc3Sc3ccccc32)CC1` [hemifumarate salt, 11-[4-[2-(2-hydroxyethoxy)ethyl]-1-piperazinyl]dibenzo[b,f][1,4]-thiazepine], for which the solubility (thermodynamic) in “physchem” was 3290 µg/mL.

The solubility (thermodynamic) is the concentration in solution at equilibrium with solid.
